Results on 17 compounds are retold here after ChEMBL document CHEMBL3991601, “The target landscape of clinical kinase drugs” (Science, 2017).

Assay [1] has as its target Bone morphogenetic protein receptor type-1A (Homo sapiens, UniProt P36894).
The target of assay [2] is Citron Rho-interacting kinase (Homo sapiens, UniProt O14578).
In assay [3] the target is T1, Eukaryotic translation initiation factor 5B (Homo sapiens, UniProt O60841).
T1 sequence (O60841 whole entry): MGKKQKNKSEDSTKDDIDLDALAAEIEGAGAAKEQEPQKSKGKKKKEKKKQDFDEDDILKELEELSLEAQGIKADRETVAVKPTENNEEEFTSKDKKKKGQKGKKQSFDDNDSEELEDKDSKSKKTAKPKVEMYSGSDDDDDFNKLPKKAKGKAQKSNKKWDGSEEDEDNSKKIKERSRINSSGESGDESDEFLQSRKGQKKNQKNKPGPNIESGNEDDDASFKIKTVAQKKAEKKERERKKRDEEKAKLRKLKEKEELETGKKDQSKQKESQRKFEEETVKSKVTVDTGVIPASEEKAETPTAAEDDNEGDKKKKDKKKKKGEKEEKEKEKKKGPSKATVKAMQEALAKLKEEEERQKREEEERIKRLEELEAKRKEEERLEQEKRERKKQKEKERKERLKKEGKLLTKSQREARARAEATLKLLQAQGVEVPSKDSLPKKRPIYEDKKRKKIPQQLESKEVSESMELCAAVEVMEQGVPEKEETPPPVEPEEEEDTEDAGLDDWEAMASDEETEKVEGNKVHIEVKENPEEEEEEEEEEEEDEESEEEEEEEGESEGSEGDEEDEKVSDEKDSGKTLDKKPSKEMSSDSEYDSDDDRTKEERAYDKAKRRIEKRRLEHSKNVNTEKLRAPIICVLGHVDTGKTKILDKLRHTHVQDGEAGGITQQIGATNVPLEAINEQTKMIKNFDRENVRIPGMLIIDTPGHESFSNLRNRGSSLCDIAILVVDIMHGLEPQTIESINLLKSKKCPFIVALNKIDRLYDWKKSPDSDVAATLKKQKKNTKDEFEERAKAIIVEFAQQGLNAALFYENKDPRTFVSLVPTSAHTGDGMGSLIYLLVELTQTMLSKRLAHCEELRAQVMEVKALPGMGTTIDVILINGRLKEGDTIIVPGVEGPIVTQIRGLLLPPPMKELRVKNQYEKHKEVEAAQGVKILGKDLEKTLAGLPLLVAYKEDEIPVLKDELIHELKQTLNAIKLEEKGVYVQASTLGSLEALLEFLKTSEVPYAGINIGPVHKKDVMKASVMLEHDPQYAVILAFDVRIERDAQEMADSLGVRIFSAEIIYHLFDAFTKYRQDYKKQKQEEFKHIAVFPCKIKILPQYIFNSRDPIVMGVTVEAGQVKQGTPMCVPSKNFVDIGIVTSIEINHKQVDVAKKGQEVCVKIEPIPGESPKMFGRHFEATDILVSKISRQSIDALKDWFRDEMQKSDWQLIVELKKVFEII

Assay [4] has as its target T2, Ephrin type-B receptor 6 (Homo sapiens, UniProt O15197).
T2 sequence (O15197 whole entry): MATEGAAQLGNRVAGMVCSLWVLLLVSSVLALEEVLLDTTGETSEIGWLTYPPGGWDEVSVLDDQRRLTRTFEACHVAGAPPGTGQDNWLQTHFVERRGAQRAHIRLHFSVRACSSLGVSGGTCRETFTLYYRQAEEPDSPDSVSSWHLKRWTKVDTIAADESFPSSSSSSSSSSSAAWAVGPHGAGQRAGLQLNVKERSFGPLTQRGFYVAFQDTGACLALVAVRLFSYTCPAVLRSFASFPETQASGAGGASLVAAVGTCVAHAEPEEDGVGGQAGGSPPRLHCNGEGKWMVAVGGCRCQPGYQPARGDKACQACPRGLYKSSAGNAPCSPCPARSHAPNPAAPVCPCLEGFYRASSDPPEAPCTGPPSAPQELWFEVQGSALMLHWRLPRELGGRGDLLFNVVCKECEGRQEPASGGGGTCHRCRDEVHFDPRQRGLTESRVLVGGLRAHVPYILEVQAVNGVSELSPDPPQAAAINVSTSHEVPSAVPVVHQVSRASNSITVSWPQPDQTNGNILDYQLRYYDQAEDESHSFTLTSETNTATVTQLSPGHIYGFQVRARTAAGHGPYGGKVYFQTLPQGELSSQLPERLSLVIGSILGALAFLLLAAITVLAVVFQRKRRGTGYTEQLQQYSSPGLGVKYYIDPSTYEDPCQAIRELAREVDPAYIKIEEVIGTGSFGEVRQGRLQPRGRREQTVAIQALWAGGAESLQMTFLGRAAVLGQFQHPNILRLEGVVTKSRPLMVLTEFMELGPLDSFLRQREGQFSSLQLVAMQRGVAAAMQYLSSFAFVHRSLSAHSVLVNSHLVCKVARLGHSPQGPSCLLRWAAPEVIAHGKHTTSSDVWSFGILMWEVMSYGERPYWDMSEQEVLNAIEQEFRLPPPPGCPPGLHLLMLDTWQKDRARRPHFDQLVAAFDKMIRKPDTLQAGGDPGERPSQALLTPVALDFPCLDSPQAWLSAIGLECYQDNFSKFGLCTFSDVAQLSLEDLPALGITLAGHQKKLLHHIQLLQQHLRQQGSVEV

Assay [5] concerns the target T3, Interleukin-1 receptor-associated kinase 4 (Homo sapiens, UniProt Q9NWZ3).
T3 sequence (Q9NWZ3 whole entry): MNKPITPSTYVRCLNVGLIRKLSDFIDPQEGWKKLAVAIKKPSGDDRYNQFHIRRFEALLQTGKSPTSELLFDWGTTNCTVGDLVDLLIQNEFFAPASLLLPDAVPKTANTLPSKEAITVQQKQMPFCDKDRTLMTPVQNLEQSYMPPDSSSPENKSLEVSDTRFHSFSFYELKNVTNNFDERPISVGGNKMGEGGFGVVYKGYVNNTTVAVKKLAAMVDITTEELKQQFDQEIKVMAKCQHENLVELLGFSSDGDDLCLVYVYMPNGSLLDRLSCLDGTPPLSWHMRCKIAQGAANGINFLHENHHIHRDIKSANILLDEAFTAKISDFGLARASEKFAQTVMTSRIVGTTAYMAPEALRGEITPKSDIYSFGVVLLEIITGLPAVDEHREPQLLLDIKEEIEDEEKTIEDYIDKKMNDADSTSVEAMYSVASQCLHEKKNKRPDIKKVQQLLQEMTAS

Molecules are shown by their SMILES. Counter-ions that a name gives are not always drawn. Calls of active or inactive are those of the source. Cut-off read from the data, not from the text of the source, for most assays here: actives have a measured Kd and inactives only a lower limit.
Note: in the data inactive means no Kd found up to 30 µM.

Sequence of Citron Rho-interacting kinase (O14578 whole entry): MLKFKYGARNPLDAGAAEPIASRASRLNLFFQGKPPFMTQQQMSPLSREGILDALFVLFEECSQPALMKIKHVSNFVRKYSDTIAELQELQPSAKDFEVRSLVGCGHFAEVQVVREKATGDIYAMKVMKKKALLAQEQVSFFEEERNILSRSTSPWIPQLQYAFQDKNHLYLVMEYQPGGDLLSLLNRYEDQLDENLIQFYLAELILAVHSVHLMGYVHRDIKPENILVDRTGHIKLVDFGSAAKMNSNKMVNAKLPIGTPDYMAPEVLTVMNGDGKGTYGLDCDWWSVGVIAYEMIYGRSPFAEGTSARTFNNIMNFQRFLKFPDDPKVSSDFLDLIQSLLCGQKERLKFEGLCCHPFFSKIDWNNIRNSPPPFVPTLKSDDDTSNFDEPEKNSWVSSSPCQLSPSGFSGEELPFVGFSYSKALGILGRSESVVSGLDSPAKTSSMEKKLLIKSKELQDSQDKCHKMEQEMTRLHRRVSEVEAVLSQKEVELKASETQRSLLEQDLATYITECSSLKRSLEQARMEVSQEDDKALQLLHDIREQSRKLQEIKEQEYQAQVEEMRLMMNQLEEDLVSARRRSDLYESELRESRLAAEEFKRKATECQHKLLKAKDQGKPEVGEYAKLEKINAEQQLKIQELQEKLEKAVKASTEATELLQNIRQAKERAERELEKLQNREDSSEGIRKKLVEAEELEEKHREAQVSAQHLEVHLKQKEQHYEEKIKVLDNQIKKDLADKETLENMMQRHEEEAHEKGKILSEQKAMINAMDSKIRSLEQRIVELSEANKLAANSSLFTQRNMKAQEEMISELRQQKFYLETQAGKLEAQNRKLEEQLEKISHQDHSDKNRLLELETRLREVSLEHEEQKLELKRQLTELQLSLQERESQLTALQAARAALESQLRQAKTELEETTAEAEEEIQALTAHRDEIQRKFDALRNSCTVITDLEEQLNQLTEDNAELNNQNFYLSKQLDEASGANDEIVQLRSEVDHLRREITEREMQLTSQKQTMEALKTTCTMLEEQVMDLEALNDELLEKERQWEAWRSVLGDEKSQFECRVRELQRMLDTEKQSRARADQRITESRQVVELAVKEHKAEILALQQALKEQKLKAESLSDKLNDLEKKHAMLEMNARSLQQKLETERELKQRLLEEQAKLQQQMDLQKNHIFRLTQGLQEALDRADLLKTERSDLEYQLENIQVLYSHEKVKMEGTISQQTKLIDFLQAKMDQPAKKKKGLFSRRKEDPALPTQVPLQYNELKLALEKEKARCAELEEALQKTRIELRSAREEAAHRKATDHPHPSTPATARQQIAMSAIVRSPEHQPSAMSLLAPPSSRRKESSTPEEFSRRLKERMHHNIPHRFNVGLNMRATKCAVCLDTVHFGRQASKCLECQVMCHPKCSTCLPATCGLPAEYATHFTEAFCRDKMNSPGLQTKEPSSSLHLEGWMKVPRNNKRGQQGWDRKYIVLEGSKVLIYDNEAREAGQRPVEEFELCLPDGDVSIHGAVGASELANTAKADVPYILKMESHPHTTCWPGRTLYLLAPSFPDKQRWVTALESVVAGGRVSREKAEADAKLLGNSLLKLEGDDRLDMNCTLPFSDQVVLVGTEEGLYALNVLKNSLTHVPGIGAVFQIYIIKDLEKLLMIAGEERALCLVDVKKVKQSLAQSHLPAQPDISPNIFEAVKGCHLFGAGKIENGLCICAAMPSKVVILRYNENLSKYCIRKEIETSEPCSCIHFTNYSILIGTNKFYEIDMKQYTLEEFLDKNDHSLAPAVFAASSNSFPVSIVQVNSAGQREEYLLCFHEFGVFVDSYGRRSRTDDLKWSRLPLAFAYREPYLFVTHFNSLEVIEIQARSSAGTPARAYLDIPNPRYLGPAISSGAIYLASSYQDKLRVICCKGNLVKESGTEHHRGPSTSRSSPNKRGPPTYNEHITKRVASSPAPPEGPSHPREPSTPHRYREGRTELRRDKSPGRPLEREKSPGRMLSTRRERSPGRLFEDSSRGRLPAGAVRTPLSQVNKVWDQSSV
Sequence of Bone morphogenetic protein receptor type-1A (P36894 whole entry): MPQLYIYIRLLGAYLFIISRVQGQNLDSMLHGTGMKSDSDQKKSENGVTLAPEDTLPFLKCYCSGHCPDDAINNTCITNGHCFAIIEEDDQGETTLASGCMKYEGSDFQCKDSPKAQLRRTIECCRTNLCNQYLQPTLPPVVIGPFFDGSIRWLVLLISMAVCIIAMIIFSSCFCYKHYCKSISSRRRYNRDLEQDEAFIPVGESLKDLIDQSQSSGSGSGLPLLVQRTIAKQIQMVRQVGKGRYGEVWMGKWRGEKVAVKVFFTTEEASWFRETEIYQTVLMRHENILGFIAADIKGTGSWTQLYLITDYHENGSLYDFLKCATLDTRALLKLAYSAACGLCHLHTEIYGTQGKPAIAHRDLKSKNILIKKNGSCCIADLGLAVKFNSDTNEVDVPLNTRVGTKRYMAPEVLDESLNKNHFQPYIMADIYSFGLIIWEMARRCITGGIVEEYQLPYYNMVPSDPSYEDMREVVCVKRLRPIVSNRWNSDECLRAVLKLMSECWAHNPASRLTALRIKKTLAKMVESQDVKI

In general, Kd refers to the free concentration of one partner at which half of the binding sites on the other are occupied at equilibrium, for simple one-to-one binding. Take `COCC(=O)NC/C=C/c1ccc2ncnc(Nc3ccc(Oc4ccc(C)nc4)c(C)c3)c2c1` [CP-724714]: the Kd in assay [1], in assay [2], in assay [3], in assay [4] and in assay [5] was > 30 µM (inactive) in each case.

In the case of `CCS(=O)(=O)N1CCN(c2ccc(Nc3ncc(C(N)=O)c(NC4CC4)n3)cc2)CC1` [Cerdulatinib Hydrochloride], the Kd in assay [1], in assay [2], in assay [3], in assay [4] and in assay [5] was > 30 µM (inactive) in each case.

`CC(C)(C)c1nc(-c2cccc(NS(=O)(=O)c3c(F)cccc3F)c2F)c(-c2ccnc(N)n2)s1` [DABRAFENIB]: the Kd in assay [1] was > 30 µM (inactive); in assay [2], > 30 µM (inactive); in assay [3], > 30 µM (inactive); in assay [4], 0.412 µM (active); in assay [5] it was > 30 µM (inactive).

As for `Cc1nc2cc(-n3ncc(C(=O)c4cc5ccccc5[nH]4)c3N)ccc2[nH]1` [FGFR INHIBITOR DEBIO 1347], the Kd was > 30 µM (inactive) in assay [1]; > 30 µM (inactive) in assay [2]; > 30 µM (inactive) in assay [3]; 0.007 µM in assay [4]; > 30 µM (inactive) in assay [5].

Regarding `O=C(Nc1nc2cccc(-c3ccc(CN4CCS(=O)(=O)CC4)cc3)n2n1)C1CC1` [FILGOTINIB], the Kd in assay [1], in assay [2], in assay [3], in assay [4] and in assay [5] was > 30 µM (inactive) each time.

Take `COc1ccc(S(=O)(=O)N(C(C)=O)c2ccccc2/C=C/c2cc[n+]([O-])cc2)cc1` [HMN-214]: the Kd in assay [1], in assay [2], in assay [3], in assay [4] and in assay [5] was > 30 µM (inactive) throughout.

Regarding `CNC(=O)c1cccc2cc(Oc3ccnc4cc(OCC5(N)CC5)c(OC)cc34)ccc12` [LUCITANIB], the Kd in assay [1], in assay [2], in assay [3], in assay [4] and in assay [5] was > 30 µM (inactive) each time.

As for `Cn1cc(-c2cnc3ccc4ccc(CS(=O)(=O)NCc5ccccn5)cc4c(=O)c3c2)cn1` [MK-8033], the Kd in assay [1], in assay [2], in assay [3], in assay [4] and in assay [5] was > 30 µM (inactive) each time.

Take `COc1ncc(-c2ccc3nccc(-c4ccnnc4)c3c2)cc1NS(=O)(=O)c1ccc(F)cc1F` [OMIPALISIB]: the Kd in assay [1], in assay [2], in assay [3], in assay [4] and in assay [5] was > 30 µM (inactive) throughout.

With `CCCCCCCCCCCCCCCCCCOP(=O)([O-])OC1CC[N+](C)(C)CC1` [PERIFOSINE], the Kd in assay [1], in assay [2], in assay [3], in assay [4] and in assay [5] was > 30 µM (inactive) in each case.

In the case of `Cc1nc(Nc2n[nH]c3c2CN(C(=O)N[C@H](CN(C)C)c2ccccc2)C3(C)C)c2sccc2n1` [PF-03758309], the Kd in assay [1], in assay [2], in assay [3], in assay [4] and in assay [5] was > 30 µM (inactive) in each case.

Consider `Cc1cnc(NC(=O)Nc2cc(Br)c(C)cc2OC[C@@H]2CNCCO2)cn1` [RABUSERTIB], for which the Kd in assay [1], in assay [2], in assay [3], in assay [4] and in assay [5] was > 30 µM (inactive) in each case.

In the case of `CNC(=O)c1cc(Oc2ccc(NC(=O)Nc3cc(C(C)(C)C)nn3-c3ccc4ncccc4c3)c(F)c2)ccn1` [REBASTINIB], the Kd is > 30 µM (inactive) in assay [1]; > 30 µM (inactive) in assay [2]; > 30 µM (inactive) in assay [3]; > 30 µM (inactive) in assay [4]; 23.2 µM (active) in assay [5].

In the case of `N#CC1(c2ccc(NC(=O)c3cccnc3NCc3ccncc3)cc2)CCCC1` [RIVOCERANIB], the Kd in assay [1], in assay [2], in assay [3], in assay [4] and in assay [5] was > 30 µM (inactive) throughout.

Regarding `O=c1[nH]ccc2cc(OC3CCNCC3)ccc12` [SAR-407899 FREE BASE], the Kd in assay [1], in assay [2], in assay [3], in assay [4] and in assay [5] was > 30 µM (inactive) in each case.

For the compound `Cn1cc(-c2cnn3c(N)c(Br)c([C@@H]4CCCNC4)nc23)cn1` [SCH-900776], the Kd in assay [1] was > 30 µM (inactive); in assay [2], > 30 µM (inactive); in assay [3] it was > 30 µM (inactive); in assay [4], > 30 µM (inactive); in assay [5], 4.01 µM.

Regarding `CO[C@H]1C[C@@H]2CC[C@@H](C)[C@@](O)(O2)C(=O)C(=O)N2CCCC[C@H]2C(=O)O[C@H]([C@H](C)C[C@@H]2CC[C@@H](O)[C@H](OC)C2)CC(=O)[C@H](C)/C=C(\C)[C@@H](O)[C@@H](OC)C(=O)[C@H](C)C[C@H](C)/C=C/C=C/C=C/1C` [SIROLIMUS], the Kd in assay [1], in assay [2], in assay [3], in assay [4] and in assay [5] was > 30 µM (inactive) throughout.
